In patent US20180265515A1 (Genentech, Inc., priority 2015, published 2018):

Experiments:
[1] = molecular target: T1, isolated recombinant JAK1 kinase domain (Homo sapiens, UniProt P23458); test: JAK1 enzyme assay (Caliper LabChip, Ki); type: biochemical; settings: recombinant JAK1 kinase domain, 25 μM ATP
T1 construct: The activity of the isolated recombinant JAK1 and JAK2 kinase domain was measured
Procedure: (§1) JAK Enzyme Assays were Carried Out as Follows:
(§2) The activity of the isolated recombinant JAK1 and JAK2 kinase domain was measured by monitoring phosphorylation of a peptide derived from JAK3 (Val-Ala-Leu-Val-Asp-Gly-Tyr-Phe-Arg-Leu-Thr-Thr, fluorescently labeled on the N-terminus with 5-carboxyfluorescein) using the Caliper LabChip® technology (Caliper Life Sciences, Hopkinton, Mass.). […] Reactions were incubated at 22° C. in 384-well polypropylene microtiter plates for 30 minutes and then stopped by addition of 25 μL of an EDTA containing solution (100 mM HEPES buffer (pH 7.2), 0.015% Brij-35, 150 mM EDTA), resulting in a final EDTA concentration of 50 mM. After termination of the kinase reaction, the proportion of phosphorylated product was determined as a fraction of total peptide substrate using the Caliper LabChip® 3000 according to the manufacturer's specifications. Ki values were then determined using the Morrison tight binding model (Morrison, J. F., Biochim. Biophys. Acta. 185:269-296 (1969); William, J. W. and Morrison, J. F., Meth. Enzymol., 63:437-467 (1979)) modified for ATP-competitive inhibition [Ki=Ki,app/(1+[ATP]/Km,app)].

[2] = test system: JAK1-dependent STAT6 phosphorylation downstream of IL-13 stimulation in BEAS-2B human bronchial epithelial cells; test: JAK1 pathway assay in BEAS-2B cells (IL-13 stimulated STAT6 phosphorylation, MSD); type: cell-based; settings: read-out: P-STAT6 BEAS2B + IL13 IC50
Procedure: JAK1 Pathway Assay in Cell Lines was Carried Out as Follows:
Inhibitor potency (EC50) was determined in cell-based assays designed to measure JAK1 dependent STAT phosphorylation. As noted above, inhibition of IL-4, IL-13, and IL-9 signaling by blocking the Jak/Stat signaling pathway can alleviate asthmatic symptoms in pre-clinical lung inflammation models (Mathew et al., 2001, J Exp Med 193(9): 1087-1096; Kudlacz et. al., 2008, Eur J. Pharmacol 582(1-3): 154-161).
In one assay approach, TF-1 human erythroleukemia cells obtained from the American Type Culture Collection (ATCC; Manassas, Va.) were used to measure JAK1-dependent STAT6 phosphorylation downstream of IL-13 stimulation. Prior to use in the assays, TF-1 cells were starved of GM-CSF overnight in OptiMEM medium (Life Technologies, Grand Island, N.Y.) supplemented with 0.5% charcoal/dextran stripped fetal bovine serum (FBS), 0.1 mM non-essential amino acids (NEAA), and 1 mM sodium pyruvate. The assays were run in 384-well plates in serum-free OptiMEM medium using 300,000 cells per well. In a second assay approach, BEAS-2B human bronchial epithelial cells obtained from ATCC were plated at 100,000 cells per well of a 96-well plate one day prior to the experiment. The BEAS-2B assay was run in complete growth medium (bronchial epithelial basal medium plus bulletkit; Lonza; Basel, Switzerland).
Test compounds were serially diluted 1:2 in DMSO and then diluted 1:50 in medium just before use. Diluted compounds were added to the cells, for a final DMSO concentration of 0.2%, and incubated for 30 min (for the TF-1 assay) or 1 hr (for the BEAS-2B assay) at 37° C. Then, cells were stimulated with human recombinant cytokine at their respective EC90 concentrations, as previously determined for each individual lot. Cells were stimulated with IL-13 (R&D Systems, Minneapolis, Minn.) for 15 min at 37° C. The TF-1 cell reactions were stopped by the direct addition of 10× lysis buffer (Cell Signaling Technologies, Danvers, Mass.), whereas the BEAS-2B cell incubations were halted by the removal of medium and addition of 1× lysis buffer. The resultant samples were frozen in the plates at −80° C. Compound mediated inhibition of STAT6 phosphorylation was measured in the cell lysates using MesoScale Discovery (MSD) technology (Gaithersburg, Md.). EC50 values were determined as the concentration of compound required for 50% inhibition of STAT phosphorylation relative to that measured for the DMSO control.

[3] = molecular target: T2, isolated recombinant JAK2 kinase domain (Homo sapiens, UniProt O60674); test: JAK2 enzyme assay (Caliper LabChip, Ki); type: biochemical; settings: 25 μM ATP
T2 construct: The activity of the isolated recombinant JAK1 and JAK2 kinase domain was measured
Procedure: as §1, §2

T2 sequence (O60674 849-1124 limits assumed): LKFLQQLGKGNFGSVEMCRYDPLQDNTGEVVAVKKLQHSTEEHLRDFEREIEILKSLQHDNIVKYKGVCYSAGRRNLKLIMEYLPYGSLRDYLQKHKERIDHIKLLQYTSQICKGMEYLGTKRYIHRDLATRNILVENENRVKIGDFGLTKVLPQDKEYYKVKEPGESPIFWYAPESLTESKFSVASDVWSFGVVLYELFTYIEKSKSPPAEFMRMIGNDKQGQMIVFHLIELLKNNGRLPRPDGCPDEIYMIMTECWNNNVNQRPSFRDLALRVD
T1 sequence (P23458 875-1153 limits assumed): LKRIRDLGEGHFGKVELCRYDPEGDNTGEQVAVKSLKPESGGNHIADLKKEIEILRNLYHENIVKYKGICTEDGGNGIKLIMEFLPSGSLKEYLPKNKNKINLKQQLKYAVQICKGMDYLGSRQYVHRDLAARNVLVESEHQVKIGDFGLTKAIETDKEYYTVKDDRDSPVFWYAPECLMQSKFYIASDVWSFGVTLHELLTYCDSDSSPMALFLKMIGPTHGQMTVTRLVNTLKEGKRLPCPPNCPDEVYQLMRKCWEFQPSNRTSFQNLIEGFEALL

Row | Structure (SMILES) | Ki [1] [nM] | Ki [3] [nM] | IC50 [2] [nM]
1 | CSc1ccc(OC(F)F)c(-c2n[nH]cc2NC(=O)c2cnn3cccnc23)c1 [Example 1, N-(3-(2-(difluoromethoxy)-5-(methylthio)phenyl)-1H-pyrazol-4-yl)pyrazolo[1,5-a]pyrimidine-3-carboxamide] | 0.079 | 0.041 | 2.6
2 | C[S+]([O-])c1ccc(OC(F)F)c(-c2n[nH]cc2NC(=O)c2cnn3cccnc23)c1 (stereo not drawn) [Example 3, N-[3-[2-(difluoromethoxy)-5-methylsulfinyl-phenyl]-1H-pyrazol-4-yl]pyrazolo[1,5-a]pyrimidine-3-carboxamide] | 1.7 | 0.57 | 430
3 | CS(=O)(=O)c1ccc(OC(F)F)c(-c2n[nH]cc2NC(=O)c2cnn3cccnc23)c1 [Example 4, N-[3-[2-(difluoromethoxy)-5-methylsulfonyl-phenyl]-1H-pyrazol-4-yl]pyrazolo[1,5-a]pyrimidine-3-carboxamide] | 0.45 | 0.16 | 35
4 | CSc1ccc(OC(F)F)c(-c2nn([C@H]3CCCNC3)cc2NC(=O)c2cnn3cccnc23)c1 [Example 9, N-[3-[2-(difluoromethoxy)-5-methylsulfanyl-phenyl]-1-[(3S)-3-piperidyl]pyraxol-4-yl]pyrazolo[1,5-a]pyrimidine-3-carboxamide] | 0.44 | 0.28 | 5.2
5 | CSc1ccc(OC(F)F)c(-c2nn(CCN[C@H]3CCOC3)cc2NC(=O)c2cnn3cccnc23)c1 [Example 10, N-[3-[2-(difluoromethoxy)-5-methylsulfanyl-phenyl]-1-[2-[[(3S)-tetrahydrofuran-3-yl]amino]ethyl]pyrazol-4-yl]pyrazolo[1,5-a]pyrimidine-3-carboxamide] | 0.49 | 0.27 | 8.8
6 | CSc1ccc(OC(F)F)c(-c2nn(CCN[C@@H]3CCOC3)cc2NC(=O)c2cnn3cccnc23)c1 [Example 11, (R)—N-(3-(2-(difluoromethoxy)-5-(methylthio)phenyl)-1-(2-((tetrahydrofuran-3-yl)amino)ethyl)-1H-pyrazol-4-yl)pyrazolo[1,5-a]pyrimidine-3-carboxamide] | 0.32 | 0.21 | 5.9
7 | CSc1ccc(OC(F)F)c(-c2nn([C@H]3CCCN(C)C3)cc2NC(=O)c2cnn3cccnc23)c1 [Example 12, (S)—N-(3-(2-(difluoromethoxy)-5-(methylthio)phenyl)-1-(1-methylpiperidin-3-yl)-1H-pyrazol-4-yl)pyrazolo[1,5-a]pyrimidine-3-carboxamide] | 0.41 | 0.32 | 6
8 | CSc1ccc(OC(F)F)c(-c2nn(CC(=O)N3CCC(N(C)CCCC#N)CC3)cc2NC(=O)c2cnn3cccnc23)c1 [Example 17, N-[1-[2-[4-[3-cyanopropyl(methyl)amino]-1-piperidyl]-2-oxo-ethyl]-3-[2-(difluoromethoxy)-5-methylsulfanyl-phenyl]pyrazol-4-yl]pyrazolo[1,5-a]pyrimidine-3-carboxamide] | 0.27 | 0.53 | 5

More lines, main results first:

Row | Ki [1] [nM] | Ki [3] [nM] | Structure (SMILES) | IC50 [2] [nM]
9 | 0.28 | 0.42 | CSc1ccc(OC(F)F)c(-c2nn(CC(=O)N3CCC(N(C)CCC#N)CC3)cc2NC(=O)c2cnn3cccnc23)c1 [Example 2, N-[1-[2-[4-[2-cyanoethyl(methyl)amino]-1-piperidyl]-2-oxo-ethyl]-3-[2-(difluoromethoxy)-5-methylsulfanyl-phenyl]pyrazol-4-yl]pyrazolo[1,5-a]pyrimidine-3-carboxamide] | 25
10 | 0.29 | 0.4 | CSc1ccc(OC(F)F)c(-c2nn(CC(=O)N3CCC(N4CCOCC4)CC3)cc2NC(=O)c2cnn3cccnc23)c1 [Example 5, N-(3-(2-(difluoromethoxy)-5-(methylthio)phenyl)-1-(2-(4-morpholinopiperidin-1-yl)-2-oxoethyl)-1H-pyrazol-4-yl)pyrazolo[1,5-a]pyrimidine-3-carboxamide] | 15
11 | 0.49 | 0.61 | CCN1CCN(C(=O)Cn2cc(NC(=O)c3cnn4cccnc34)c(-c3cc(SC)ccc3OC(F)F)n2)CC1 [Example 6, N-[3-[2-(difluoromethoxy)-5-methylsulfanyl-phenyl]-1-[2-(4-ethylpiperazin-1-yl)-2-oxo-ethyl]pyrazol-4-yl]pyrazolo[1,5-a]pyrimidine-3-carboxamide] | 18
12 | 0.3 | 0.49 | CSc1ccc(OC(F)F)c(-c2nn(CC(=O)N3CCC(CN4CCOCC4)CC3)cc2NC(=O)c2cnn3cccnc23)c1 [Example 7, N-[3-[2-(difluoromethoxy)-5-methylsulfanyl-phenyl]-1-[2-[4-(morpholinomethyl)-1-piperidyl]-2-oxo-ethyl]pyrazol-4-yl]pyrazolo[1,5-a]pyrimidine-3-carboxamide] | 4.8
13 | 0.29 | 0.39 | CSc1ccc(OC(F)F)c(-c2nn(CC(=O)N3CCC(NCCC#N)CC3)cc2NC(=O)c2cnn3cccnc23)c1 [Example 8, N-[1-[2-[4-(2-cyanoethylamino)-1-piperidyl]-2-oxo-ethyl]-3-[2-(difluoromethoxy)-5-methylsulfanyl-phenyl]pyrazol-4-yl]pyrazolo[1,5-a]pyrimidine-3-carboxamide] | 18
14 | 0.44 | 0.9 | CSc1ccc(OC(F)F)c(-c2nn(CC(=O)N3CCC(N(C)CC(=O)N(C)C)CC3)cc2NC(=O)c2cnn3cccnc23)c1 [Example 13, N-[3-[2-(difluoromethoxy)-5-methylsulfanyl-phenyl]-1-[2-[4-[[2-(dimethylamino)-2-oxo-ethyl]-methyl-amino]-1-piperidyl]-2-oxo-ethyl]pyrazol-4-yl]pyrazolo[1,5-a]pyrimidine-3-carboxamide] | 57
15 | 0.32 | 0.68 | CSc1ccc(OC(F)F)c(-c2nn(CC(=O)N3CCC(N(C)CC(=O)N4CCCC4)CC3)cc2NC(=O)c2cnn3cccnc23)c1 [Example 14] | 89
16 | 0.28 | 0.38 | CSc1ccc(OC(F)F)c(-c2nn(CC(=O)N3CCC(N4CCNC(=O)C4)CC3)cc2NC(=O)c2cnn3cccnc23)c1 [Example 15, N-[3-[2-(difluoromethoxy)-5-methylsulfanyl-phenyl]-1-[2-oxo-2-[4-(3-oxopiperazin-1-yl)-1-piperidyl]ethyl]pyrazol-4-yl]pyrazolo[1,5-a]pyrimidine-3-carboxamide] | 310
17 | 0.39 | 0.5 | CSc1ccc(OC(F)F)c(-c2nn(CC(=O)N3CCN(CCN4CCOCC4)CC3)cc2NC(=O)c2cnn3cccnc23)c1 [Example 16, N-[3-[2-(difluoromethoxy)-5-methylsulfanyl-phenyl]-1-[2-[4-(2-morpholinoethyl)piperazin-1-yl]-2-oxo-ethyl]pyrazol-4-yl]pyrazolo[1,5-a]pyrimidine-3-carboxamide] | 18
18 | 0.24 | 0.37 | CSc1ccc(OC(F)F)c(-c2nn(CC(=O)N3CCC(N4CCC(C#N)CC4)CC3)cc2NC(=O)c2cnn3cccnc23)c1 [Example 18, N-[1-[2-[4-(4-cyano-1-piperidyl)-1-piperidyl]-2-oxo-ethyl]-3-[2-(difluoromethoxy)-5-methylsulfanyl-phenyl]pyrazol-4-yl]pyrazolo[1,5-a]pyrimidine-3-carboxamide] | 6
